Legend:
[1] = system: pilocarpine-evoked salivation; assay: Inhalation guinea pig salivation assay; format: in vivo
Experimental: Inhalation Guinea Pig Salivation Assay
Guinea pigs (Charles River, Wilmington, Mass.) weighing 200-350 g were acclimated to the in-house guinea pig colony for at least 3 days following arrival. Test compound or vehicle were dosed via inhalation (IH) over a 10 minute time period in a pie shaped dosing chamber (R&S Molds, San Carlos, Calif.). Test solutions were dissolved in sterile water and delivered using a nebulizer filled with 5.0 mL of dosing solution. Guinea pigs were restrained in the inhalation chamber for 30 minutes. During this time, guinea pigs were restricted to an area of approximately 110 sq. cm. […] Upon completion of nebulization, guinea pigs were evaluated at 1.5, 6, 12, 24, 48, or 72 hrs after treatment.
Guinea pigs were anesthetized one hour before testing with an intramuscular (IM) injection of a mixture of ketamine 43.75 mg/kg, xylazine 3.5 mg/kg, and acepromazine 1.05 mg/kg at an 0.88 mL/kg volume. […] Saliva was collected for 10 minutes, at which point the gauze pad was weighed and the difference in weight recorded to determine the amount of accumulated saliva (in mg). The mean amount of saliva collected for animals receiving the vehicle and each dose of test compound was calculated. […] Results were calculated using result means (n=3 or greater). Confidence intervals (95%) were calculated for each dose at each time point using two-way ANOVA. […]

[2] = target: T1, hM3 muscarinic receptor subtype (Homo sapiens, UniProt P20309); assay: Radioligand binding assay ([3H]-NMS displacement); conditions: CHO cell membranes, [3H]-NMS at 1 nM, Cheng-Prusoff; read-out: Ki value for the M3 muscarinic receptor subtype
T1 construct: expressed in transfected cells; crude membranes prepared in house
T1 sequence (P20309 whole entry): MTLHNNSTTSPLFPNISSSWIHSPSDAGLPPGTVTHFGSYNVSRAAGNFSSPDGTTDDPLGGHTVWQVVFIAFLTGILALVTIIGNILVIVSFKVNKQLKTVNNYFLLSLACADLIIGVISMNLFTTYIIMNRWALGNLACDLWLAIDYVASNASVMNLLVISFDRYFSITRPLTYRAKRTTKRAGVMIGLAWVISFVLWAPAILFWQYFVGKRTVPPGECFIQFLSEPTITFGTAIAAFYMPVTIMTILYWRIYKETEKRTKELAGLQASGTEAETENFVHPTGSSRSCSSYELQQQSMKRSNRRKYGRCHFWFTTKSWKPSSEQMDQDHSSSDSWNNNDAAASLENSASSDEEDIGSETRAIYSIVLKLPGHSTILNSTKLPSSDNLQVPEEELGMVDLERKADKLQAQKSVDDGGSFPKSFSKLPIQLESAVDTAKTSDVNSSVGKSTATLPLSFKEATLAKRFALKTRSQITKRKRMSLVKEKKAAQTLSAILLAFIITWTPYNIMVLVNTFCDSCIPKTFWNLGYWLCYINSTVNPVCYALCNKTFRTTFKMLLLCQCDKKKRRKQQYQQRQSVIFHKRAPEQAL
Experimental: A. Membrane Preparation from Cells Expressing hM1, hM2, hM3 and hM4 Muscarinic Receptor Subtypes
CHO cell lines stably expressing cloned human hM1, hM2, hM3 and hM4 muscarinic receptor subtypes, respectively, were grown to near confluency in medium consisting of HAM's F-12 supplemented with 10% FBS and 250 μg/mL Geneticin. The cells were grown in a 5% CO2, 37° C. incubator and lifted with 2 mM EDTA in dPBS. Cells were collected by 5 minute centrifugation at 650×g, and cell pellets were either stored frozen at −80° C. or membranes were prepared immediately. For membrane preparation, cell pellets were suspended in lysis buffer and homogenized with a Polytron PT-2100 tissue disrupter (Kinematica AG; 20 seconds×2 bursts). […] The protein concentration of the membrane suspension was determined by the method described in Lowry, O. et al., […] 193:265 (1951). […]
Radioligand binding assays were performed in 96-well microtiter plates in a total assay volume of 100 μL. […] Filter plates were rinsed three times with wash buffer (10 mM HEPES) to remove unbound radioactivity. […] The plates were then counted in a PerkinElmer Topcount liquid scintillation counter (PerkinElmer Inc., Wellesley, Mass.). Binding data were analyzed by nonlinear regression analysis with the GraphPad Prism Software package (GraphPad Software, Inc., San Diego, Calif.) using the one-site competition model. […]

Ki [2] [nM]	Compound	apparent lung selectivity index (ratio of anti-sialagogue ID50 to bronchoprotective ID50) [1]
	CNCCc1ccc(CCN2CC[C@@H](C(C(N)=O)(c3ccccc3)c3ccccc3)C2)cc1 [Example 2, 2-((S)-1-{2-[4-(2-Methylaminoethyl)phenyl]ethyl}pyrrolidin-3-yl)-2,2-diphenyl-acetamide]	greater than 15
110	Cc1cnc(CNCCc2ccc(CCN3CC[C@@H](C(C(N)=O)(c4ccccc4)c4ccccc4)C3)cc2)cn1 [Example 16, 2-{(S)-1-[2-(4-{2-[(5-methylpyrazin-2-ylmethyl)amino]ethyl}phenyl)ethyl]pyrrolidin-3-yl}-2,2-diphenylacetamide]	
